≈ marks a conversion by molar mass, not a printed value. Where “and” joins values, the source holds several entries; their conditions need not be identical. Equal values may be shown once. Read-outs that look alike come from different tables or passages of the source.
Experiments:
[1] = ITC binding of naamidine A to ZnCl2; conditions: ITC with significant amounts of MeOH; reasonable approximation
From the text: While this is believed to be a reasonable approximation of this binding, these ITC experiments were convoluted by solubility issues of the different species, requiring significant amounts of MeOH which can affect the accuracy of ITC experiments. Fisicaro et al. Thermochim. Acta 2014, 586 (0), 40-44. With a Zn^2+ binding affinity in the high nanomolar range, NA's phenotypic activity is likely a result of both kinase modulation and zinc binding.

[2] = test system: A. baumanii; experiment: MIC determination in 96-well plates; assay type: cell-based, Acinetobacter baumannii (ATCC 19606); conditions: Acinetobacter baumannii; read-out: MIC100
[3] = test system: Candida albicans; experiment: MIC determination in 96-well plates; assay type: cell-based, Candida albicans (ATCC 90028); conditions: read-out: MIC100
[4] = in vivo, mouse models (Ireland et al.); cited from earlier work
[5] = test system: CEM-TART cells; experiment: Cytotoxicity in CEM-TART cells; assay type: cell-based
[6] = test system: Mycobacterium tuberculosis; experiment: microbe, parasite or virus in culture; conditions: read-out: IC50 (anti-proliferative activity)
Description: (§1) Library screening and MIC determination for the compounds were performed in 96-well plates as described previously in Koch et al. Planta Med 2009; 75(12): 1326-1330. Different media were used for respective test organisms. […] Mycobacterium tuberculosis H37Ra (ATCC 25177) was grown in 7H9 medium with ADC supplement (Remel, Lenexa, Kans.). Final well volume was 200 μL. […] The remaining wells received 1 μL of test compound in DMSO, in triplicates for MIC determination. Incubation was overnight at 37° C. for other organisms except for M. tuberculosis which was incubated for 5 days. B. subtilis and M. tuberculosis received 11 μL of sterile 5 mg/mL 3-(4,5-dimethylthiazol-2-yl)-2,5-diphenyltetrazolium bromide (MTT) in PBS on day 1 or 4, respectively. Formazan precipitate was dissolved with 50 μL solubilization reagent (50% DMF, 5% SDS, 45% water). Plates were evaluated on a Muliskan FC plate reader (Fisher Scientific, Waltham, Mass.).

[7] = Zn^2+ binding, (ZNA)2Zn dimer formation (MeOH precipitation, X-ray, NMR)
From the text: The structure of the solid product was confirmed by X-ray crystallography (FIG. 14B). […] HCl in D2O protonates the ligand off the metal center, as evidenced by the disappearance of the diastereotopic benzyllic AB quartet in the dimer and its appearance as a singlet in the monomer. […] Of the analogues evaluated, those with more electron-donating groups at C5 or on the N^2-carbonyl seem to improve activity.

[8] = test system: MCF-7s; experiment: Cell viability of MCF-7 cells treated with ZNA and ZNA analogues; assay type: cell-based, human; conditions: ZNA analogues and metabolite; assay not further specified
From the text: Of the analogues evaluated, those with more electron-donating groups at C5 or on the N^2-carbonyl seem to improve activity.

[9] = in vivo; set-up: species or system Sprague-Dawley rats; conditions: female, Sprague-Dawley, rat
Description: ZNA has promising pkpd parameters. An initial pharmacokinetic (PK) analysis on ZNA was performed at 1 mg/kg IV, 5 mg/kg PO. ZNA was dosed to female Sprague-Dawley rats at either 1 mg/kg intravenously or at 5 mg/kg orally. Plasma was collected with K2EDTA and stored at −80° C. until analysis. Quantification of ZNA was performed by protein precipitation followed by ultra-high performance liquid chromatography (UHPLC) interfaced to an electrospray ionization quadrapole time-of-flight mass spectrometer (ESI-QTOF). Plasma concentrations were determined from a calibration curve using […]. The values determined were fit with Phoenix WinNonlin and pharmacokinetic values reported.
The plasma concentrations for ZNA were very low, and most samples fell below the lower limit of quantification for the assay (10.0 ng/mL). This limited the data available for fitting in WinNonlin. To increase the amount of data for fitting, values from below the curve were extrapolated to approximately 40% of the LLOQ and were used for PK fitting. The percent of the area extrapolated in the PO PK animals ranged from 34-70% which was considered quite high. […] The oral bioavailability determined was approximately 6%. This value is considered a rough estimate based upon the area extrapolated and the unusually high clearance determined. […] Possible explanations for the high clearance are binding of compound to red blood cells, extremely rapid clearance that requires collection of earlier time points to establish a more accurate CO, and extrahepatic elimination.

[10] = test system: Mycobacterium tuberculosis; conditions: read-out: IC50 (anti-proliferative activity); MTT assay
Description: as §1

COc1ccc(Cc2nc(NC3=NC(=O)N(C)C3=O)n(C)c2Cc2ccc(O)cc2)cc1 [Naamidine A]
Kd [1]: ~0.35 µM
MIC [2]: 79 µM (≈ 34.2 µg/mL)
MIC [3]: 0.78 µM (≈ 0.338 µg/mL)
maximum tolerated dose [4]: 25 mg/kg
selectivity ratio ([5]; CEM-TART IC50 relative to M. tuberculosis IC50): 37
IC50 ([5]; CEM-TART cells): 34.8 µM
IC50 [6]: 940 nM and 0.41 µg/mL

COc1ccc(-c2c(Cc3ccccc3)nc(N(C)C(=O)c3ccccc3F)n2C)cc1 [ZNA-17, N-(4-Benzyl-5-(4-methoxyphenyl)-1-methyl-1H-imidazol-2-yl)-2-fluoro-N-methylbenzamide]
Zn^2+ binding [7]: incapable of binding Zn^2+
activity [8]: not active

Cn1c(-c2ccc(O)cc2)c(Cc2ccccc2)[nH]/c1=N\C(=O)c1ccccc1F [ZNA-18, (E)-N-(4-Benzyl-5-(4-hydroxyphenyl)-1-methyl-1H-imidazol-2(3H)-ylidene)-2-fluorobenzamide]
ratio of major circulating metabolite to ZNA [9]: 1:1
activity [8]: active

COc1ccc(-c2c3cc(OC)c(OC)cc3cc3c2nc(N)n3C)cc1 [kealiinine B, Kealiinine B]
IC50 [10]: 8.9 µM

COc1ccc(-c2c3nc(N)n(C)c3cc3cc(OC)c(OC)c(OC)c23)cc1 [kealiinine C, Kealiinine C]
IC50 [10]: 42 µM

From patent US10493061B2, “Compositions and methods comprising 2-(acylamino)imidazoles” (priority 2014, dated 2019)
